This note sets out measurements from patent publication US9765068B2, “PRMT5 inhibitors and uses thereof” (Epizyme, Inc., priority 2012, dated 2017).

Each structure is given as a SMILES string.

PRMT5/MEP50, sequence (O14744 other isoform, or with tags, fused parts or gaps): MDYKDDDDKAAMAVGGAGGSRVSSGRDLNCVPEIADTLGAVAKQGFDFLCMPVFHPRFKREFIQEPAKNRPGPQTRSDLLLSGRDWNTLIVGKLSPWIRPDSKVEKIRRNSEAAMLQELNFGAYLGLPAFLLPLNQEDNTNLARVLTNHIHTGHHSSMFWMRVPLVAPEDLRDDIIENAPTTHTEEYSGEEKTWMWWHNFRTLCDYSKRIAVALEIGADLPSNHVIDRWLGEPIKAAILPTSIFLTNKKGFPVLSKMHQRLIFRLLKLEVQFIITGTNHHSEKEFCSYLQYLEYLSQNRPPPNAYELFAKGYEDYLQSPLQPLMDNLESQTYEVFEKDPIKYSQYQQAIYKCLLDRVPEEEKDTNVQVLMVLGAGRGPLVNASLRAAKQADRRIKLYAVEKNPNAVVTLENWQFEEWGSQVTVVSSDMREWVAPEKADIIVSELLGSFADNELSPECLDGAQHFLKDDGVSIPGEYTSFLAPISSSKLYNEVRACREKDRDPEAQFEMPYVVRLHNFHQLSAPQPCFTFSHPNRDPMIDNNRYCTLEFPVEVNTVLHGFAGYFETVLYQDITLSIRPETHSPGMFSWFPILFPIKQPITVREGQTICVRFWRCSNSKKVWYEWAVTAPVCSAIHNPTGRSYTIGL
PRMT5/MEP50, sequence (Q9BQA1 other isoform, or with tags, fused parts or gaps partner): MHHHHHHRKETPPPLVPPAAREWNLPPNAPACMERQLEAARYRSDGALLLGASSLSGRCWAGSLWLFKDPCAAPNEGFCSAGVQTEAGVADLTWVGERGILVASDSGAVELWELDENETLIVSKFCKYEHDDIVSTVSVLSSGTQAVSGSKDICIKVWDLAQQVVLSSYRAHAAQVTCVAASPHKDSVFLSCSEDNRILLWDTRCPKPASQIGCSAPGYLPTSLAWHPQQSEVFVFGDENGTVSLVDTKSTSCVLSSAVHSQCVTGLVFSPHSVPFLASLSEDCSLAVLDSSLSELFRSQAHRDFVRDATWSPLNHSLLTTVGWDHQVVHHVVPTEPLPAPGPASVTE

The target in the test is PRMT5/MEP50 (Homo sapiens (Human), UniProt O14744). The experiment in a line: PRMT5 Biochemical Assay (PRMT5/MEP50 enzyme assay on peptide substrate, 3H-SAM Flashplate). The conditions noted are these: PRMT5/MEP50 4 nM, 3H-SAM 75 nM, peptide 40 nM. From the text:
General Materials. S-adenosylmethionine (SAM), S-adenosylhomocysteine (SAH), bicine, KCl, Tween20, dimethylsulfoxide (DMSO), bovine skin gelatin (BSG), and Tris(2-carboxyethyl)phosphine hydrochloride solution (TCEP) were purchased from Sigma-Aldrich at the highest level of purity possible. ^3H-SAM was purchase from American Radiolabeled Chemicals with a specific activity of 80 Ci/mmol. 384-well streptavidin Flashplates were purchased from PerkinElmer.
Substrates. Peptide representative of human histone H4 residues 1-15 was synthesized with a C-terminal linker-affinity tag motif and a C-terminal amide cap by 21st Century Biochemicals. […] The sequence was Ac-[…][K-Biot]-amide (SEQ ID NO.:3).
Full-length human MEP50 (NM_024102) clone was amplified from a human testis cDNA library incorporating a 5′ sequence encoding a 6-histidine tag (MHHHHHH) (SEQ ID NO.:5) fused directly to Arg 2 of MEP50. The amplified genes were sublconed into pENTR/D/TEV (Life Technologies) and subsequently transferred by Gateway™ attL×attR recombination to pDEST8 baculvirus expression vector (Life Technologies).
Protein Expression. Recombinant baculovirus and Baculovirus-Infected Insect Cells (BIIC) were generated according to Bac-to-Bac kit instructions (Life Technologies) and Wasilko, 2006, respectively. Protein over-expression was accomplished by infecting exponentially growing Spodoptera frugiperda (SF9) cell culture at 1.2×10^6 cell/ml with a 5000 fold dilution of BIIC stock. Infections were carried out at 27° C. for 72 hours, harvested by centrifugation, and stored at −80° C. for purification.
Protein Purification. […] Flag-PRMT5/6His-MeP50 was eluted with 300 mM Imidazole in the same buffer. […] Reference: Wasilko, D. J. and S. E. Lee: “TIPS: titerless infected-cells preservation and scale-up” Bioprocess J., 5 (2006), pp. 29-32.
General Procedure for PRMT5/MEP50 Enzyme Assays on Peptide Substrates.
The assays were all performed in a buffer consisting of 20 mM Bicine (pH=7.6), 1 mM TCEP, 0.005% BSG, and 0.002% Tween20, prepared on the day of use. Compounds in 100% DMSO (1 ul) were spotted into a polypropylene 384-well V-bottom plates (Greiner) using a Platemate Plus outfitted with a 384-channel head (Thermo Scientific). DMSO (1 ul) was added to Columns 11, 12, 23, 24, rows A-H for the maximum signal control and 1 ul of SAH, a known product and inhibitor of PRMT5/MEP50, was added to columns 11, 12, 23, 24, rows I-P for the minimum signal control. A cocktail (40 ul) containing the PRMT5/MEP50 enzyme and the peptide was added by Multidrop Combi (Thermo-Fisher). The compounds were allowed to incubate with PRMT5/MEP50 for 30 min at 25 degrees Celsius, then a cocktail (10 ul) containing ^3H-SAM was added to initiate the reaction (final volume=51 ul). The final concentrations of the components were as follows: PRMT5/MEP50 was 4 nM, ^3H-SAM was 75 nM, peptide was 40 nM, SAH in the minimum signal control wells was 100 uM, and the DMSO concentration was 1%. The assays were stopped by the addition of non-radioactive SAM (10 ul) to a final concentration of 600 uM, which dilutes the ^3H-SAM to a level where its incorporation into the peptide substrate is no longer detectable. 50 ul of the reaction in the 384-well polypropylene plate was then transferred to a 384-well Flashplate and the biotinylated peptides were allowed to bind to the streptavidin surface for at least 1 hour before being washed three times with 0.1% Tween20 in a Biotek ELx405 plate washer. The plates were then read in a PerkinElmer TopCount plate reader to measure the quantity of ^3H-labeled peptide bound to the Flashplate surface, measured as disintegrations per minute (dpm) or alternatively, referred to as counts per minute (cpm).
[formula] Where dpm=disintegrations per minute, cmpd=signal in assay well, and min and max are the respective minimum and maximum signal controls.
By IC50 is commonly meant the midpoint of a concentration-inhibition curve. `O=C(COc1ccccc1F)NCC(O)CN1CCc2ccccc2C1` (stereo not shown) [Compound 16]: the half-inhibitory concentration (IC50) lay in the range of 101 to 1000 nM. The result for `O=C(Cc1ccccc1)NC[C@H](O)CN1CCc2ccccc2C1` [Compound 55] reads 101 to 1000 nM; that for `CN1CCc2cccc(OCC(=O)NCC(O)CN3CCc4ccccc4C3)c2C1` (stereo not shown) [Compound 120], 101 to 1000 nM; that for `NC(=O)c1ccccc1OCC(=O)NCC(O)CN1CCc2ccccc2C1` (stereo not shown) [Compound 29], 101 to 1000 nM. The result for `CC(C)(Oc1ccccc1)C(=O)NCC(O)CN1CCc2ccccc2C1` (stereo not shown) [Compound 25, N-(3-(3,4-dihydroisoquinolin-2(1H)-yl)-2-hydroxypropyl)-2-methyl-2-phenoxypropanamide] reads 101 to 1000 nM; that for `CN(C)CCOc1ccccc1OCC(=O)NC[C@@H](O)CN1CCc2ccccc2C1` [Compound 89], 101 to 1000 nM. The result for `O=C(COc1ccccc1-c1c[nH]cn1)NCC(O)CN1CCc2ccccc2C1` (stereo not shown) [Compound 115] reads 10000 to 50000 nM. Regarding `Cc1ccc(OCC(=O)NCC(O)CN2CCc3ccccc3C2)cc1` (stereo not shown) [Compound 9, N-(3-(3,4-dihydroisoquinolin-2(1H)-yl)-2-hydroxypropyl)-2-(p-tolyloxy)acetamide], the half-inhibitory concentration (IC50) is 101 to 1000 nM. The result for `C[C@H](Oc1cccc2cccnc12)C(=O)NC[C@@H](O)CN1CCc2ccccc2C1` [Compound 72] reads 1000 to 10000 nM. The result for `CS(=O)(=O)Nc1cccnc1OCC(=O)NCC(O)CN1CCc2ccccc2C1` (stereo not shown) [Compound 140] reads 1000 to 10000 nM; that for `CC(=O)Nc1ccc(OCC(=O)NCC(O)CN2CCc3ccccc3C2)cc1` (stereo not shown) [Compound 21, 2-(4-acetamidophenoxy)-N-(3-(3,4-dihydroisoquinolin-2(1H)-yl)-2-hydroxypropyl)acetamide], 101 to 1000 nM.

Turning to `N#Cc1ccc(OCC(=O)NCC(O)CN2CCc3ccccc3C2)cc1` (stereo not shown) [Compound 11], the concentration for half-maximal inhibition (IC50) was in the range of 101 to 1000 nM. The result for `O=C(COc1ccccc1OCCN1CCOCC1)NC[C@@H](O)CN1CCc2ccccc2C1` [Compound 87] reads 1000 to 10000 nM; that for `CC(=O)Nc1cccc(OCC(=O)NCC(O)CN2CCc3ccccc3C2)c1` (stereo not shown) [Compound 31, 2-(3-acetamidophenoxy)-N-(3-(3,4-dihydroisoquinolin-2(1H)-yl)-2-hydroxypropyl)acetamide], 1000 to 10000 nM. The result for `O=C(CC1CCCCC1)NC[C@H](O)CN1CCc2ccccc2C1` [Compound 56] reads 1000 to 10000 nM; that for `CN(CC(O)CN1CCc2ccccc2C1)C(=O)COc1ccccc1` (stereo not shown) [Compound 5], 10000 to 50000 nM; that for `COc1ccc2cccc(OCC(=O)NC[C@H](O)CN3CCc4ccccc4C3)c2n1` [Compound 97], 101 to 1000 nM.

As to `O=C(COc1ccccc1-c1ncc[nH]1)NCC(O)CN1CCc2ccccc2C1` (stereo not shown) [Compound 137], the half-maximal inhibitory concentration (IC50) is 101 to 1000 nM.

With `O=C(CCc1ccccc1)NCC(O)CN1CCc2ccccc2C1` (stereo not shown) [Compound 2], the IC50 was 1000 to 10000 nM. Consider `O=C(COc1cccc2c1OCC(=O)N2)NCC(O)CN1CCc2ccccc2C1` (stereo not shown) [Compound 124], for which the IC50 fell in the range of 1000 to 10000 nM. The result for `O=C(COc1cccc2cccnc12)NC[C@H](O)CN1CCc2ccccc2C1` [Compound 44, (S)—N-(3-(3,4-dihydroisoquinolin-2(1H)-yl)-2-hydroxypropyl)-2-(quinolin-8-yloxy)acetamide] reads 101 to 1000 nM; that for `CN(C)c1ccc(OCC(=O)NCC(O)CN2CCc3ccccc3C2)cc1` (stereo not shown) [Compound 35], 101 to 1000 nM; that for `N#Cc1cccc(OCC(=O)NCC(O)CN2CCc3ccccc3C2)c1` (stereo not shown) [Compound 8, 2-(3-cyanophenoxy)-N-(3-(3,4-dihydroisoquinolin-2(1H)-yl)-2-hydroxypropyl)acetamide], 101 to 1000 nM. The result for `O=C(COCc1cccnc1)NCC(O)CN1CCc2ccccc2C1` (stereo not shown) [Compound 152, N-(3-(3,4-dihydroisoquinolin-2(1H)-yl)-2-hydroxypropyl)-2-(pyridin-3-ylmethoxy)acetamide] reads 1000 to 10000 nM; that for `CS(=O)(=O)c1ccc(OCC(=O)NCC(O)CN2CCc3ccccc3C2)cc1` (stereo not shown) [Compound 14], 1000 to 10000 nM; that for `O=C(COc1ccccc1C1CNC1)NCC(O)CN1CCc2ccccc2C1` (stereo not shown) [Compound 132], 1000 to 10000 nM. The result for `O=C(COc1cccc(C(=O)N2CCOCC2)c1)NCC(O)CN1CCc2ccccc2C1` (stereo not shown) [Compound 83] reads 101 to 1000 nM; that for `Cn1cnc2ccc(NCC(=O)NCC(O)CN3CCc4ccccc4C3)cc21` (stereo not shown) [Compound 69], 101 to 1000 nM. With `NS(=O)(=O)c1ccc(OCC(=O)NCC(O)CN2CCc3ccccc3C2)cc1` (stereo not shown) [Compound 52], the concentration for half-maximal inhibition (IC50) fell in the range of 1000 to 10000 nM. The result for `O=C(COC1CCCCC1)NCC(O)CN1CCc2ccccc2C1` (stereo not shown) [Compound 24, 2-(cyclohexyloxy)-N-(3-(3,4-dihydroisoquinolin-2(1H)-yl)-2-hydroxypropyl)acetamide] reads 101 to 1000 nM; that for `Nc1ncccc1OCC(=O)NCC(O)CN1CCc2ccccc2C1` (stereo not shown) [Compound 145], 1000 to 10000 nM. The result for `NS(=O)(=O)c1cccc(OCC(=O)NCC(O)CN2CCc3ccccc3C2)c1` (stereo not shown) [Compound 131] reads 1000 to 10000 nM; that for `O=C(Cc1cccc2cccnc12)NCC(O)CN1CCc2ccccc2C1` (stereo not shown) [Compound 60, N-(3-(3,4-dihydroisoquinolin-2(1H)-yl)-2-hydroxypropyl)-2-(quinolin-8-yl)acetamide], 101 to 1000 nM; that for `CC(=O)Nc1ccccc1OCC(=O)NCC(O)CN1CCc2ccccc2C1` (stereo not shown) [Compound 36], 101 to 1000 nM.

Take `CS(=O)(=O)N1CCN(c2ccccc2OCC(=O)NCC(O)CN2CCc3ccccc3C2)CC1` (stereo not shown) [Compound 106]: the IC50 fell in the range of 101 to 1000 nM. The result for `CN1CCC(c2ccccc2OCC(=O)NCC(O)CN2CCc3ccccc3C2)CC1` (stereo not shown) [Compound 134] reads 101 to 1000 nM; that for `CN1CCCc2c(OCC(=O)NCC(O)CN3CCc4ccccc4C3)cccc21` (stereo not shown) [Compound 151], 101 to 1000 nM. Take `O=C(COc1ccccc1N1CCOCC1)NC[C@@H](O)CN1CCc2ccccc2C1` [Compound 78]: the IC50 fell in the range of 101 to 1000 nM.

As for `CN(C)c1ncccc1OCC(=O)NCC(O)CN1CCc2ccccc2C1` (stereo not shown) [Compound 127], the half-maximal inhibitory concentration (IC50) was 101 to 1000 nM. `O=C(COc1ccc(F)cc1)NCC(O)CN1CCc2ccccc2C1` (stereo not shown) [Compound 10]: the half-maximal inhibitory concentration (IC50) fell in the range of 1000 to 10000 nM. As for `Cc1ccccc1OCC(=O)NCC(O)CN1CCc2ccccc2C1` (stereo not shown) [Compound 15, N-(3-(3,4-dihydroisoquinolin-2(1H)-yl)-2-hydroxypropyl)-2-(o-tolyloxy)acetamide], the IC50 lay within 101 to 1000 nM. The result for `O=C(COc1ccccc1)NCC(O)CN1CCc2ccccc2C1` (stereo not shown) [Compound 1, N-(3-(3,4-dihydroisoquinolin-2(1H)-yl)-2-hydroxypropyl)-2-phenoxyacetamide] reads 101 to 1000 nM; that for `CN1CCC(c2ccccc2OCC(=O)NCC(O)CN2CCc3ccccc3C2)C1` (stereo not shown) [Compound 136], 1000 to 10000 nM; that for `CNC(=O)c1ccccc1OCC(=O)NCC(O)CN1CCc2ccccc2C1` (stereo not shown) [Compound 112], 101 to 1000 nM. The result for `O=C(Cc1ccncc1)NCC(O)CN1CCc2ccccc2C1` (stereo not shown) [Compound 51] reads 10000 to 50000 nM. The result for `CN(c1cccc(OCC(=O)NCC(O)CN2CCc3ccccc3C2)c1)S(C)(=O)=O` (stereo not shown) [Compound 142] reads 101 to 1000 nM; that for `CN(C)c1cncc(OCC(=O)NCC(O)CN2CCc3ccccc3C2)c1` (stereo not shown) [Compound 143], 1000 to 10000 nM. On to `O=C(COc1ccccc1C1CCNC1)NCC(O)CN1CCc2ccccc2C1` (stereo not shown) [Compound 116], for which the concentration for half-maximal inhibition (IC50) lay in the range of 1000 to 10000 nM. The result for `CN1CC(c2ccccc2OCC(=O)NCC(O)CN2CCc3ccccc3C2)C1` (stereo not shown) [Compound 135] reads 1000 to 10000 nM.
